In article PMC10783034, “Pharmacokinetic and pharmacodynamic evaluation of the atypical tetracyclines chelocardin and amidochelocardin in murine infection models” (Microbiology Spectrum, 2023):

Assay: Histopathological analysis of kidneys and bladder in the ascending urinary tract infection model (satellite groups)
Format: in vivo, mice
Parameters: key to histopathological score Pelvis: 1 = mild; 2 = moderate; 3 = severe; histopathological score Papilla / histopathological score Bladder: scale not given here
Conditions: for histopathological findings in bladder / histopathological findings in kidneys: infected mice, CHD/CDCHD 12 mg/kg SC BID, gentamicin 100 mg/kg SC BID
Experimental: The model was conducted as described previously ([27], [60]). In brief, n = 21 animals were used per group in the main study, and n = 3 animals per group in satellite groups for histopathological analysis. Three days before the start of the study and during the study, mice had free access to 5% glucose as drinking water. Fresh overnight colonies of E. coli from a 5% horse blood agar plate were suspended in PBS pH 7.4 to approximately 10^9 cfu/mL. Approximately 1 hour before inoculation, mice were treated orally with […] Nurofen (20 mg ibuprofen/mL corresponding to approximately 30 mg/kg) as a pain relief. Urine was removed from the bladder by gently pressing the abdomen and mice were anaesthetized with 0.15 mL Zoletil mix SC. Thereafter, the mice were inoculated. A syringe with a catheter, containing the bacterial suspension was inserted via the urethra into the bladder and 50 µL of the inoculum was slowly injected into the bladder. Hereafter, the mouse was placed in the cage and kept in a warming cabinet until fully awake (approximately 4 hours). The mice were treated with CHD (12 mg/kg SC BID), CDCHD (12 mg/kg SC BID), gentamicin (100 mg/kg SC BID), or vehicle BID (2nd dose was administered approximately 6 hours after the 1st dose on each day) on day 1, that is, first dose around 24 hours post-infection, and day 2 post-inoculation. The mice were observed during the study and scored based on their behavior and clinical signs. Clinical scoring comprised assessment of piloerection in the skin, activity (movement, curiosity), and appearance of eyes. The scoring range comprised 0–4. In our model, a maximum score of 1; thus, only mild discomfort was observed. On day 3 post-inoculation and after sampling urine, mice were euthanized by cervical dislocation, and bladder and kidneys were removed from 21 mice in each treatment group aseptically for cfu determination. The bladder and kidneys were stored at −80°C and later homogenized in 0.5 or 1 mL saline, respectively. Colony counts of urine were determined immediately. From the three additional mice in each treatment group (satellite groups), urine and plasma were sampled and frozen at −80°C, and bladders, kidneys, and liver were collected in 4% buffered formalin. Cfu was determined in urine samples within 2–3 hours after sampling. Frozen organs were thawed and homogenized with steel beads using a tissue lyser. All samples, urine, kidney, and bladder, were 10-fold diluted in saline and 20 µL spots were applied on blue agar plates in duplicates. In addition, undiluted samples of urine (2–100 μL depending on the available amount of urine) were spread on a separate agar plate to determine the colony counts at the lowest possible detection level. All agar plates were incubated for 18–22 hours at 35°C in ambient air.
Approximately 3 µm thick sections of formalin-fixed, paraffin-embedded samples of liver and kidney were analyzed blinded, and randomized to the experimental groups by a trained veterinarian. […] Kidneys were analyzed for changes in the glomeruli (not found), tubular dilation (1 = mild or up to 20% of tubuli affected, 2 = moderate or 25-40% of tubuli affected, 3 = severe 50% or more), and inflammatory infiltrate in the pelvis (1 = mild, 2 = moderate, 3 = severe).

Row | SMILES | histopathological score Bladder (animal No. 1) | histopathological score Glomeruli (animal No. 1) | histopathological score Papilla (animal No. 1) | histopathological score Pelvis (animal No. 1) | histopathological score Tubuli (animal No. 1) | histopathological score Bladder (animal No. 2) | histopathological score Glomeruli (animal No. 2) | histopathological score Papilla (animal No. 2) | histopathological score Pelvis (animal No. 2) | histopathological score Tubuli (animal No. 2) | histopathological score Bladder (animal No. 3) | histopathological score Glomeruli (animal No. 3) | histopathological score Papilla (animal No. 3) | histopathological score Pelvis (animal No. 3) | histopathological score Tubuli (animal No. 3) | histopathological findings in bladder | histopathological findings in kidneys
1 | Cc1ccc2c(C)c3c(c(O)c2c1O)C(=O)C1(O)C(=O)C(C(N)=O)=C(O)C(N)C1C3 (stereo not drawn) [CDCHD, 2-carboxamido-2-deacetyl-chelocardin] | 0 | 0 | 0 | 0 | 2 (2 = moderate or 25-40% of tubuli affected) | 0 | 0 | 0 | 1 | 2 (2 = moderate or 25-40% of tubuli affected) | 0 | 0 | 1 | 0 | 1 (1 = mild or up to 20% of tubuli affected) | did not show any significant alterations | a moderate tubulus dilation (resulting in moderate or 20%–40% of tubuli affected) and protein casts
2 | CC(=O)C1=C(O)[C@H](N)[C@@H]2Cc3c(c(O)c4c(O)c(C)ccc4c3C)C(=O)[C@]2(O)C1=O [CHD, chelocardin] | – | 0 | 2 | 0 | 3 (3 = severe 50% or more) | - 1 1 | 0 | 2 | 1 | 3 (3 = severe 50% or more) | - 1 1 | 0 | 0 | 2 | 1 (1 = mild or up to 20% of tubuli affected) | mild, focal, submucosal inflammatory aggregates | moderate tubulus degeneration with vacuolated cytoplasm, accumulation of hyaline droplets, protein casts, and a mild to moderate accumulation of inflammatory cells
